# Values joined by “and” are separate entries in the source; they are usually repeats but may differ in a detail not shown here. Equal values may be shown once. Marks after values point to notes of the source that are not given here.
# Tested on: patients with MUM
# Assay: Grade ≥3 serious adverse events regardless of study drug relationship
# Assay type: in vivo, human
# Procedure: Routine safety assessments, including laboratory assessments, physical examinations, vital signs and electrocardiograms (ECGs), were conducted at regular intervals throughout the study and more frequently as needed following patient assessment by the treating physician. Adverse events (AEs) were assessed continuously according to the National Cancer Institute Common Terminology Criteria for Adverse Events (NCI-CTCAE) v4.03.
smiles,measurement,setting,value
CC1(N)CCN(c2cccnc2NC(=O)c2nc(-c3ncccc3C(F)(F)F)cnc2N)CC1 [LXS196],Acute kidney injury SAE,100 mg QD,0 n (%)
same,Cellulitis SAE,100 mg QD,0 n (%)
same,Constipation SAE,100 mg QD,0 n (%)
same,Diarrhoea SAE,100 mg QD,0 n (%)
same,Eyelid bleeding SAE,100 mg QD,0 n (%)
same,Hepatic cytolysis SAE,100 mg QD,0 n (%)
same,Hepatic failure SAE,100 mg QD,0 n (%)
same,Hypotension SAE,100 mg QD,0 n (%)
same,Nausea SAE,100 mg QD,0 n (%)
same,Neutrophil count decreased SAE,100 mg QD,0 n (%)
same,Oedema peripheral SAE,100 mg QD,0 n (%)
same,Patients with ≥1 SAE,100 mg QD,0 n (%)
same,Pneumonia SAE,100 mg QD,0 n (%)
same,Rash pruritic SAE,100 mg QD,0 n (%)
same,Thrombocytopenia SAE,100 mg QD,0 n (%)
same,Vomiting SAE,100 mg QD,0 n (%)
same,Acute kidney injury SAE,200 mg BID,0 n (%)
same,Cellulitis SAE,200 mg BID,1 (16.7) n (%)
same,Constipation SAE,200 mg BID,0 n (%)
same,Diarrhoea SAE,200 mg BID,0 n (%)
same,Eyelid bleeding SAE,200 mg BID,0 n (%)
same,Hepatic cytolysis SAE,200 mg BID,0 n (%)
same,Hepatic failure SAE,200 mg BID,0 n (%)
same,Hypotension SAE,200 mg BID,0 n (%)
same,Nausea SAE,200 mg BID,0 n (%)
same,Neutrophil count decreased SAE,200 mg BID,0 n (%)
same,Oedema peripheral SAE,200 mg BID,0 n (%)
same,Patients with ≥1 SAE,200 mg BID,1 (16.7) n (%)
same,Pneumonia SAE,200 mg BID,0 n (%)
same,Rash pruritic SAE,200 mg BID,0 n (%)
same,Thrombocytopenia SAE,200 mg BID,0 n (%)
same,Vomiting SAE,200 mg BID,0 n (%)
same,Acute kidney injury SAE,200 mg QD,0 n (%)
same,Cellulitis SAE,200 mg QD,0 n (%)
same,Diarrhoea SAE,200 mg QD,0 n (%)
same,Eyelid bleeding SAE,200 mg QD,0 n (%)
same,Hepatic cytolysis SAE,200 mg QD,0 n (%)
same,Hepatic failure SAE,200 mg QD,0 n (%)
same,Hypotension SAE,200 mg QD,0 n (%)
same,Nausea SAE,200 mg QD,1 (25.0) n (%)
same,Neutrophil count decreased SAE,200 mg QD,0 n (%)
same,Oedema peripheral SAE,200 mg QD,0 n (%)
same,Patients with ≥1 SAE,200 mg QD,1 (25.0) n (%)
same,Pneumonia SAE,200 mg QD,1 (25.0) n (%)
same,Rash pruritic SAE,200 mg QD,0 n (%)
same,Thrombocytopenia SAE,200 mg QD,0 n (%)
same,Vomiting SAE,200 mg QD,1 (25.0) n (%)
same,Acute kidney injury SAE,300 mg BID (RDE),1 (5.6) n (%)
same,Cellulitis SAE,300 mg BID (RDE),0 n (%)
same,Constipation SAE,300 mg BID (RDE),0 n (%)
same,Diarrhoea SAE,300 mg BID (RDE),0 n (%)
same,Eyelid bleeding SAE,300 mg BID (RDE),1 (5.6) n (%)
same,Hepatic cytolysis SAE,300 mg BID (RDE),1 (5.6) n (%)
same,Hepatic failure SAE,300 mg BID (RDE),1 (5.6) n (%)
same,Hypotension SAE,300 mg BID (RDE),0 n (%)
same,Nausea SAE,300 mg BID (RDE),0 n (%)
same,Neutrophil count decreased SAE,300 mg BID (RDE),1 (5.6) n (%)
same,Oedema peripheral SAE,300 mg BID (RDE),1 (5.6) n (%)
same,Patients with ≥1 SAE,300 mg BID (RDE),5 (27.8) n (%)
same,Pneumonia SAE,300 mg BID (RDE),1 (5.6) n (%)
same,Rash pruritic SAE,300 mg BID (RDE),1 (5.6) n (%)
same,Thrombocytopenia SAE,300 mg BID (RDE),1 (5.6) n (%)
same,Vomiting SAE,300 mg BID (RDE),0 n (%)
same,Acute kidney injury SAE,300 mg QD,0 n (%)
same,Cellulitis SAE,300 mg QD,0 n (%)
same,Constipation SAE,300 mg QD,0 n (%)
same,Diarrhoea SAE,300 mg QD,0 n (%)
same,Eyelid bleeding SAE,300 mg QD,0 n (%)
same,Hepatic cytolysis SAE,300 mg QD,0 n (%)
same,Hepatic failure SAE,300 mg QD,0 n (%)
same,Hypotension SAE,300 mg QD,0 n (%)
same,Nausea SAE,300 mg QD,0 n (%)
same,Neutrophil count decreased SAE,300 mg QD,0 n (%)
same,Oedema peripheral SAE,300 mg QD,0 n (%)
same,Patients with ≥1 SAE,300 mg QD,0 n (%)
same,Pneumonia SAE,300 mg QD,0 n (%)
same,Rash pruritic SAE,300 mg QD,0 n (%)
same,Thrombocytopenia SAE,300 mg QD,0 n (%)
same,Vomiting SAE,300 mg QD,0 n (%)
same,Acute kidney injury SAE,400 mg BID,0 n (%)
same,Cellulitis SAE,400 mg BID,0 n (%)
same,Constipation SAE,400 mg BID,0 n (%)
same,Diarrhoea SAE,400 mg BID,0 n (%)
same,Eyelid bleeding SAE,400 mg BID,0 n (%)
same,Hepatic cytolysis SAE,400 mg BID,0 n (%)
same,Hepatic failure SAE,400 mg BID,0 n (%)
same,Hypotension SAE,400 mg BID,1 (16.7) n (%)
same,Nausea SAE,400 mg BID,0 n (%)
same,Neutrophil count decreased SAE,400 mg BID,0 n (%)
same,Oedema peripheral SAE,400 mg BID,0 n (%)
same,Patients with ≥1 SAE,400 mg BID,1 (16.7) n (%)
same,Pneumonia SAE,400 mg BID,0 n (%)
same,Rash pruritic SAE,400 mg BID,0 n (%)
same,Thrombocytopenia SAE,400 mg BID,0 n (%)
same,Vomiting SAE,400 mg BID,0 n (%)
same,Acute kidney injury SAE,500 mg QD,0 n (%)
same,Cellulitis SAE,500 mg QD,0 n (%)
same,Constipation SAE,500 mg QD,0 n (%)
same,Diarrhoea SAE,500 mg QD,0^b n (%)
same,Eyelid bleeding SAE,500 mg QD,0 n (%)
same,Hepatic cytolysis SAE,500 mg QD,0 n (%)
same,Hepatic failure SAE,500 mg QD,0 n (%)
same,Hypotension SAE,500 mg QD,3 (27.3) n (%)
same,Nausea SAE,500 mg QD,0 n (%)
same,Neutrophil count decreased SAE,500 mg QD,0 n (%)
same,Oedema peripheral SAE,500 mg QD,0 n (%)
same,Patients with ≥1 SAE,500 mg QD,3 (27.3) n (%)
same,Pneumonia SAE,500 mg QD,0 n (%)
same,Rash pruritic SAE,500 mg QD,0 n (%)
same,Thrombocytopenia SAE,500 mg QD,0 n (%)
same,Vomiting SAE,500 mg QD,0 n (%)
same,Acute kidney injury SAE,800 mg QD,0 n (%)
same,Cellulitis SAE,800 mg QD,0 n (%)
same,Constipation SAE,800 mg QD,0 n (%)
same,Diarrhoea SAE,800 mg QD,0 n (%)
same,Eyelid bleeding SAE,800 mg QD,0 n (%)
same,Hepatic cytolysis SAE,800 mg QD,0 n (%)
same,Hepatic failure SAE,800 mg QD,0 n (%)
same,Hypotension SAE,800 mg QD,1 (100) n (%)
same,Nausea SAE,800 mg QD,0 n (%)
same,Neutrophil count decreased SAE,800 mg QD,0 n (%)
same,Oedema peripheral SAE,800 mg QD,0 n (%)
same,Patients with ≥1 SAE,800 mg QD,1 (100) n (%)
same,Pneumonia SAE,800 mg QD,0 n (%)
same,Rash pruritic SAE,800 mg QD,0 n (%)
same,Thrombocytopenia SAE,800 mg QD,0 n (%)
same,Vomiting SAE,800 mg QD,0 n (%)
same,Acute kidney injury SAE,1000 mg QD,0 n (%)
same,Cellulitis SAE,1000 mg QD,0 n (%)
same,Constipation SAE,1000 mg QD,0 n (%)
same,Diarrhoea SAE,1000 mg QD,0 n (%)
same,Eyelid bleeding SAE,1000 mg QD,0 n (%)
same,Hepatic cytolysis SAE,1000 mg QD,0 n (%)
same,Hepatic failure SAE,1000 mg QD,0 n (%)
same,Hypotension SAE,1000 mg QD,1 (25.0) n (%)
same,Nausea SAE,1000 mg QD,0 n (%)
same,Neutrophil count decreased SAE,1000 mg QD,0 n (%)
same,Oedema peripheral SAE,1000 mg QD,0 n (%)
same,Patients with ≥1 SAE,1000 mg QD,2 (50.0) n (%)
same,Pneumonia SAE,1000 mg QD,1 (25.0) n (%)
same,Rash pruritic SAE,1000 mg QD,0 n (%)
same,Thrombocytopenia SAE,1000 mg QD,0 n (%)
same,Vomiting SAE,1000 mg QD,0 n (%)
same,Acute kidney injury SAE,All BID,1 (3.3) n (%)
same,Cellulitis SAE,All BID,1 (3.3) n (%)
same,Constipation SAE,All BID,0 n (%)
same,Diarrhoea SAE,All BID,0 n (%)
same,Eyelid bleeding SAE,All BID,1 (3.3) n (%)
same,Hepatic cytolysis SAE,All BID,1 (3.3) n (%)
same,Hepatic failure SAE,All BID,1 (3.3) n (%)
same,Hypotension SAE,All BID,1 (3.3) n (%)
same,Nausea SAE,All BID,0 n (%)
same,Neutrophil count decreased SAE,All BID,1 (3.3) n (%)
same,Oedema peripheral SAE,All BID,1 (3.3) n (%)
same,Patients with ≥1 SAE,All BID,7 (23.3) n (%)
same,Pneumonia SAE,All BID,1 (3.3) n (%)
same,Rash pruritic SAE,All BID,1 (3.3) n (%)
same,Thrombocytopenia SAE,All BID,1 (3.3) n (%)
same,Vomiting SAE,All BID,0 n (%)
same,Acute kidney injury SAE,All QD,0 n (%)
same,Cellulitis SAE,All QD,0 n (%)
same,Constipation SAE,All QD,0^b n (%)
same,Diarrhoea SAE,All QD,0^b n (%)
same,Eyelid bleeding SAE,All QD,0 n (%)
same,Hepatic cytolysis SAE,All QD,0 n (%)
same,Hepatic failure SAE,All QD,0 n (%)
same,Hypotension SAE,All QD,5 (13.2) n (%)
same,Nausea SAE,All QD,1 (2.6) n (%)
same,Neutrophil count decreased SAE,All QD,0 n (%)
same,Oedema peripheral SAE,All QD,0 n (%)
same,Patients with ≥1 SAE,All QD,7 (18.4) n (%)
same,Pneumonia SAE,All QD,2 (5.3) n (%)
same,Rash pruritic SAE,All QD,0 n (%)
same,Thrombocytopenia SAE,All QD,0 n (%)
same,Vomiting SAE,All QD,1 (2.6) n (%)
same,Acute kidney injury SAE,All patients,1 (1.5) n (%)
same,Cellulitis SAE,All patients,1 (1.5) n (%)
same,Constipation SAE,All patients,0^b n (%)
same,Diarrhoea SAE,All patients,0^b n (%)
same,Eyelid bleeding SAE,All patients,1 (1.5) n (%)
same,Hepatic cytolysis SAE,All patients,1 (1.5) n (%)
same,Hepatic failure SAE,All patients,1 (1.5) n (%)
same,Hypotension SAE,All patients,6 (8.8) n (%)
same,Nausea SAE,All patients,1 (1.5) n (%)
same,Neutrophil count decreased SAE,All patients,1 (1.5) n (%)
same,Oedema peripheral SAE,All patients,1 (1.5) n (%)
same,Patients with ≥1 SAE,All patients,14 (20.6%) n (%) and 14 (20.6) n (%)
same,Pneumonia SAE,All patients,3 (4.4) n (%)
same,Rash pruritic SAE,All patients,1 (1.5) n (%)
same,Thrombocytopenia SAE,All patients,1 (1.5) n (%)
same,Vomiting SAE,All patients,1 (1.5) n (%)

# Reference: article PMC10006169, “A phase I trial of LXS196, a protein kinase C (PKC) inhibitor, for metastatic uveal melanoma” (British Journal of Cancer, 2023)
